From patent US20140066394A1, “Substituted 6-(Benzylamino) Purine Riboside Derivatives, Use Thereof and Compositions Containing These Derivatives” (Biopatterns, S.R.O, priority 2009, published 2014)

How the values were obtained:
[1] = tested on: promyelocytic HL-60 leukemia; assay: In vitro cytotoxicity, Calcein AM assay, HL60; format: cell-based, human; conditions: Homo sapiens, HL-60, 72 hours
From the text: (§1) Low cytotoxicity of the compounds is the major property determining the cosmetic use. One of the parameters used, as the basis for cytotoxicity assays, is the metabolic activity of viable cells. For example, a microtiter assay, which uses the Calcein AM, is now widely used to quantitate cell proliferation and cytotoxicity. For instance, this assay is used in drug screening programs and in chemosensitivity testing. Because only metabolically active cells cleave Calcein AM, these assays detect viable cells exclusively. The quantity of […] Calcein AM corresponds to the number of vital cells in the culture.
(§2) Human T-lymphoblastic leukemia cell line CEM; promyelocytic HL-60 and monocytic U937 leukemias; breast carcinoma cell lines MCF-7, BT549, MDA-MB-231; glioblastoma U87MG cells; cervical carcinoma cells HELA; sarcoma cells U2OS and Saos2; hepatocellular carcinoma HepG2; mouse fibroblasts NIH3T3; mouse immortalized bone marrow macrophages B2.4 and B10A.4; P388D1 and L1210 leukemia; B16 and B16F10 melanomas; human osteosarcoma HOS; human myeloid leukemia K-562; human skin melanoma G-361 were used for routine screening of compounds. The cells were maintained in Nunc/Corning 80 cm^2 plastic tissue culture flasks and cultured in cell culture medium (DMEM with 5 g/l glucose, 2 mM glutamine, 100 U/mL penicillin, 100 μg/mL streptomycin, 10% fetal calf serum and sodium bicarbonate).
(§3) The cell suspensions that were prepared and diluted according to the particular cell type and the expected target cell density (2.500-30.000 cells per well based on cell growth characteristics) were added by pipette ([…]) into 96/well microtiter plates. Inoculates were allowed a pre-incubation period of 24 hours at 37° C. and 5% CO2 for stabilisation. Four-fold dilutions of the intended test concentration were added at time zero in 20 μl aliquots to the microtiter plate wells. Usually, the compound tested was evaluated at six 4-fold dilutions. In routine testing, the highest well concentration was 100 μM, but it can be the matter of change dependent on the agent. All drug concentrations were examined in duplicates. Incubations of cells with the tested compounds lasted for 72 hours at 37° C., in 5% CO2 atmosphere and 100% humidity. At the end of the incubation period, the cells were assayed by using Calcein AM. Ten microliters of the stock solution were pipetted into each well and incubated for 1 hour. Fluorescence (FD) was measured with the Labsystem FIA Reader Fluoroscan Ascent (UK). The tumour cell survival (GI50) was calculated using the following equitation: TCS=(FDdrug exposed well/mean FDeontrol wells)×100%. The GI50 value, the drug concentration lethal to 50% of the tumour cells, was calculated from the obtained dose response curves.
(§4) Zero cytotoxicity of the novel compounds is the basic prerequisite for agricultural and tumor-unrelated applications. The cytoxicity of the novel compounds was tested on a panel of cell lines of different histogenetic and species origin (Table 9). We show herein that equal activities were found in all tumour cell lines tested, however, the non-malignant cells, e.g. NIH3T3 fibroblasts and normal human lymphocytes, were resistant to 2,6-disubstituted purine ribosides induced cytotoxicity. The compounds listed in Tab. 9 can be divided into 2 groups. The first group contains “classical cytokinins” represented by 6-substituted purine ribosides (which are known in the prior art). The second group contains the novel 2,6-disubstituted derivatives of these compounds. […] GI50 for NIH3T3 fibroblasts and normal human lymphocytes was always higher than 100 μM. The novel derivatives show no toxicity to normal and tumour cells in concentrations about 100 μM and thus are more suitable for agricultural applications than “classical cytokinins” (6-substituted purine riboside derivatives).

[2] = tested on: human osteosarcoma HOS; assay: In vitro cytotoxicity, Calcein AM assay, HOS; format: cell-based; conditions: Homo sapiens, 72 hours
From the text: as §1, §2, §3, §4

[3] = tested on: neutrophils; assay: Neutrophil spreading in Fibronectin; format: cell-based; conditions: FIG. 8
[4] = tested on: human myeloid leukemia K-562; assay: In vitro cytotoxicity, Calcein AM assay, K-562; format: cell-based; conditions: Homo sapiens, K562, 72 hours
From the text: as §1, §2, §3, §4

[5] = tested on: Peripheral blood neutrophils; assay: Neutrophil apoptosis, Giemsa stain and light microscopy; format: cell-based; conditions: Homo sapiens, 20 hours culture, read-out: IC50 of inhibition of neutrophil apoptosis
Protocol: Neutrophils were cultured at 2×10^6 cells/ml for 20 h in RPMI1640 medium containing human serum and antibiotics and a range of concentrations of compound 10. Apoptosis was determined by differential Giemsa staining and light microscopy to determine cells with an apoptotic nuclear morphology. Data are mean±SD of 5 separate experiments.
Effects of the compounds on neutrophil apoptosis were also determined as an indication of utility in diseases where their survival is dysregulated such as systemic vasculitis and chronic inflammatory disease. Peripheral blood neutrophils were cultured for 20 hours in RPMI1640 medium containing 2% human AB serum, 2 mM L-glutamine and antibiotics (100 U/ml penicillin, […] streptomycin) and their apoptosis determined by staining with Giemsa stain and observing an apoptotic morphology by light microscopy (see Pongracz J et al. 1999, J. Biol. Chem. 274: 37329-37334). Compound 10 inhibited neurophil apoptosis with an IC50 of 1 μM (FIG. 4).

[6] = tested on: neutrophils; assay: Neutrophil degranulation, release of myeloperoxidase, ELISA; format: cell-based; conditions: Homo sapiens, primed neutrophils, ELISA (FIG. 4)
Protocol: Neutrophils were cultured at 2×10^6 cells/ml in RPMI1640 medium containing human serum antibiotics and 20 ng/ml TNFα for 10 minutes prior to addition of a range of concentrations of compound 10. Release of MPO was monitored after a 30 minute period by ELISA. Data are mean of duplicate measurements representative of 5 separate experiments.
Anti-inflammatory effects against neutrophils were determined by assessing effects of several of the compounds on neutrophil inflammatory activity (superoxide generation, secretion of chemoattractant IL8 and degranulation to release myeloperoxidase). Neutrophils were isolated from human blood to a purity of greater than 95% and were cultured in RPMI1640 medium containing 2% human AB serum, 2 mM L-glutamine and antibiotics (100 U/ml penicillin, […] streptomycin). Neutrophils were primed for 30 minutes with 50 ng/ml GM-CSF prior to treatment with the bacterial stimulant fMLP (100 ng/ml) and measurement of superoxide generation in a lucigenin based assay (see Pongracz J and Lord J M 1998, Biochem. Biophys. Res. Commun. 247, 624-629) and release of IL8 and myeloperoxidase using an ELISA method. The novel compounds were added to the culture at a range of concentrations (0.1-100 μM) 10 minutes prior to addition of fMLP. […]

[7] = tested on: human skin melanoma G-361; assay: In vitro cytotoxicity, Calcein AM assay, G-361; format: cell-based; conditions: Homo sapiens, G-361, 72 hours
From the text: as §1, §2, §3, §4

[8] = tested on: breast carcinoma cell line MCF-7; assay: In vitro cytotoxicity, Calcein AM assay, MCF7; format: cell-based, human; conditions: Homo sapiens, MCF7, 72 hours
From the text: as §1, §2, §3, §4

## COc1cccc(CNc2nc(Cl)nc3c2ncn3C2OC(CO)C(O)C2O)c1O (centres unmarked) [Compound 10, 2-Chloro-6-(2-hydroxy-3-methoxybenzylamino)purine riboside]
[1]
  GI50: > 100 µM
[2]
  GI50: > 100 µM
[3]
  neutrophil spreading in Fibronectin: reduces neutrophil spreading
[4]
  GI50: > 100 µM
[5]
  IC50: 1 µM
[6]
  IC50: 4 µM
[7]
  GI50: > 100 µM
[8]
  GI50: > 100 µM
